Assay results: the supplement of paper PMC8612539
Converted amounts (≈) assume the structure as drawn.

Key:
[1] = test system: Enterococcus spp.; assay: minimum inhibitory concentration (MIC)
Procedure: (§1)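 Broth microdilution MIC (Sensititre BOPO7F bovine plate, CLSI methods) of 19 antimicrobials against field isolates of P. multocida, M. haemolytica, H. somni (deep nasopharyngeal swabs) and E. coli, Enterococcus spp. (rectal swabs) from weaned dairy heifers. Incubation 16-24 h at 35 C. MIC is the lowest concentration preventing visible growth. Values with <= or > lie at the tested range limits. Trimethoprim-sulfamethoxazole is given as the trimethoprim component of a 1:19 mixture.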

[2] = test system: Mannheimia haemolytica; assay: minimum inhibitory concentration (MIC)
Procedure: as §1

CCN1CCN(c2cc3c(cc2F)c(=O)c(C(=O)O)cn3C2CC2)CC1 [Enrofloxacin]
Settings	minimum inhibitory concentration [µg/mL]
[1], isolate (source animal id): 2	0.25 (≈ 0.696 µM)
[1], isolate (source animal id): 35	> 2
[1], isolate (source animal id): 42	0.5 (≈ 1.39 µM)
[1], isolate (source animal id): 44	0.5 (≈ 1.39 µM)
[1], isolate (source animal id): 79	1 (≈ 2.78 µM)
[1], isolate (source animal id): 88	0.25 (≈ 0.696 µM)
[1], isolate (source animal id): 91	0.25 (≈ 0.696 µM)
[1], isolate (source animal id): 92	1 (≈ 2.78 µM)
[1], isolate (source animal id): 111	0.25 (≈ 0.696 µM)
[1], isolate (source animal id): 122	1 (≈ 2.78 µM)
[1], isolate (source animal id): 123	0.5 (≈ 1.39 µM)
[1], isolate (source animal id): 133	1 (≈ 2.78 µM)
[1], isolate (source animal id): 158	0.5 (≈ 1.39 µM)
[1], isolate (source animal id): 168	0.5 (≈ 1.39 µM)
[1], isolate (source animal id): 169	0.5 (≈ 1.39 µM)
[1], isolate (source animal id): 171	0.5 (≈ 1.39 µM)
[1], isolate (source animal id): 175	1 (≈ 2.78 µM)
[1], isolate (source animal id): 177	2 (≈ 5.56 µM)
[1], isolate (source animal id): 181	0.5 (≈ 1.39 µM)
[1], isolate (source animal id): 182	0.5 (≈ 1.39 µM)
[1], isolate (source animal id): 183	0.5 (≈ 1.39 µM)
[1], isolate (source animal id): 187	0.5 (≈ 1.39 µM)
[1], isolate (source animal id): 190	0.5 (≈ 1.39 µM)
[1], isolate (source animal id): 194	0.5 (≈ 1.39 µM)
[1], isolate (source animal id): 195	0.5 (≈ 1.39 µM)
[1], isolate (source animal id): 197	0.5 (≈ 1.39 µM)
[1], isolate (source animal id): 211	0.5 (≈ 1.39 µM)
[1], isolate (source animal id): 214	1 (≈ 2.78 µM)
[1], isolate (source animal id): 222	0.5 (≈ 1.39 µM)
[1], isolate (source animal id): 223	0.25 (≈ 0.696 µM)
[1], isolate (source animal id): 228	0.5 (≈ 1.39 µM)
[1], isolate (source animal id): 230	0.5 (≈ 1.39 µM)
[1], isolate (source animal id): 235	0.5 (≈ 1.39 µM)
[1], isolate (source animal id): 236	2 (≈ 5.56 µM)
[1], isolate (source animal id): 239	2 (≈ 5.56 µM)
[1], isolate (source animal id): 241	0.5 (≈ 1.39 µM)
[1], isolate (source animal id): 244	0.5 (≈ 1.39 µM)
[1], isolate (source animal id): 246	0.5 (≈ 1.39 µM)
[1], isolate (source animal id): 247	0.5 (≈ 1.39 µM)
[1], isolate (source animal id): 250	0.25 (≈ 0.696 µM)
[1], isolate (source animal id): 252	> 2
[1], isolate (source animal id): 268	0.25 (≈ 0.696 µM)
[1], isolate (source animal id): 282	1 (≈ 2.78 µM)
[1], isolate (source animal id): 285	1 (≈ 2.78 µM)
[1], isolate (source animal id): 289	0.5 (≈ 1.39 µM)
[1], isolate (source animal id): 290	0.5 (≈ 1.39 µM)
[1], isolate (source animal id): 296	0.5 (≈ 1.39 µM)
[1], isolate (source animal id): 298	0.5 (≈ 1.39 µM)
[1], isolate (source animal id): 301	0.5 (≈ 1.39 µM)
[1], isolate (source animal id): 310	1 (≈ 2.78 µM)
[1], isolate (source animal id): 320	0.5 (≈ 1.39 µM)
[1], isolate (source animal id): 331	0.5 (≈ 1.39 µM)
[1], isolate (source animal id): 333	0.5 (≈ 1.39 µM)
[1], isolate (source animal id): 341	> 2
[2], isolate (source animal id): 8	0.5 (≈ 1.39 µM)
[2], isolate (source animal id): 13	0.5 (≈ 1.39 µM)
[2], isolate (source animal id): 18	0.5 (≈ 1.39 µM)
[2], isolate (source animal id): 21	0.5 (≈ 1.39 µM)
[2], isolate (source animal id): 25	0.5 (≈ 1.39 µM)
[2], isolate (source animal id): 27	0.5 (≈ 1.39 µM)
[2], isolate (source animal id): 28	1 (≈ 2.78 µM)
[2], isolate (source animal id): 30	0.5 (≈ 1.39 µM)
[2], isolate (source animal id): 31	1 (≈ 2.78 µM)
[2], isolate (source animal id): 32	0.25 (≈ 0.696 µM)
[2], isolate (source animal id): 34	0.5 (≈ 1.39 µM)
[2], isolate (source animal id): 36	0.5 (≈ 1.39 µM)
[2], isolate (source animal id): 37	1 (≈ 2.78 µM)
[2], isolate (source animal id): 40	0.5 (≈ 1.39 µM)
[2], isolate (source animal id): 41	0.5 (≈ 1.39 µM)
[2], isolate (source animal id): 43	0.5 (≈ 1.39 µM)
[2], isolate (source animal id): 46	0.5 (≈ 1.39 µM)
[2], isolate (source animal id): 49	0.5 (≈ 1.39 µM)
[2], isolate (source animal id): 50	0.5 (≈ 1.39 µM)
[2], isolate (source animal id): 51	0.5 (≈ 1.39 µM)
[2], isolate (source animal id): 52	0.5 (≈ 1.39 µM)
[2], isolate (source animal id): 53	0.5 (≈ 1.39 µM)
[2], isolate (source animal id): 55	0.5 (≈ 1.39 µM)
